Source: PubChem BioAssay AID330 (DTP/NCI, 2004)
“And” between values parts separate entries of the source, which are not always exact repeats. Equal entries are not always repeated. Inconclusive results and toxic doses are left out. The calls were made as follows: active = survival T/C of 150% or more; inactive = T/C below 125% in these data.

Tested on: P388 leukemia ip, CD2F1 mice, survival T/C
Experiment: NCI In Vivo Anticancer Drug Screen. Data for tumor model P388 Leukemia (intraperitoneal) in CD2F1 (CDF1) mice
Settings: endpoint: median survival time, higher = longer survival
Procedure, shortened: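 Mice carrying the transplanted tumor received test compound or vehicle. Survival was recorded in each group, and the value is the treated-group measurement divided by that of the vehicle-treated control group.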

[1] = dose: 25.0 mg/kg/injection, schedule: Q01DX009 (ip), vehicle: Klucel (hydroxypropylcellulose) (HPC)
[2] = dose: 50.0 mg/kg/injection, schedule: Q01DX009 (ip), vehicle: Klucel (hydroxypropylcellulose) (HPC)
[3] = dose: 100.0 mg/kg/injection, schedule: Q01DX009 (ip), vehicle: Klucel (hydroxypropylcellulose) (HPC)
[4] = dose: 200.0 mg/kg/injection, schedule: Q01DX009 (ip), vehicle: Klucel (hydroxypropylcellulose) (HPC)
[5] = dose: 100.0 mg/kg/injection, schedule: Q04DX003 (ip), vehicle: saline with Tween-80
[6] = dose: 200.0 mg/kg/injection, schedule: Q04DX003 (ip), vehicle: saline with Tween-80
[7] = dose: 400.0 mg/kg/injection, schedule: Q04DX003 (ip), vehicle: saline with Tween-80
[8] = dose: 25.0 mg/kg/injection, schedule: Q01DX009 (ip), vehicle: saline with Tween-80
[9] = dose: 50.0 mg/kg/injection, schedule: Q01DX009 (ip), vehicle: saline with Tween-80
[10] = dose: 100.0 mg/kg/injection, schedule: Q01DX009 (ip), vehicle: saline with Tween-80
[11] = dose: 5.0 mg/kg/injection, schedule: Q01DX005 (ip), vehicle: Klucel (hydroxypropylcellulose) (HPC)
[12] = dose: 10.0 mg/kg/injection, schedule: Q01DX005 (ip), vehicle: Klucel (hydroxypropylcellulose) (HPC)
[13] = dose: 20.0 mg/kg/injection, schedule: Q01DX005 (ip), vehicle: Klucel (hydroxypropylcellulose) (HPC)
[14] = dose: 40.0 mg/kg/injection, schedule: Q01DX005 (ip), vehicle: Klucel (hydroxypropylcellulose) (HPC)
[15] = dose: 80.0 mg/kg/injection, schedule: Q01DX005 (ip), vehicle: Klucel (hydroxypropylcellulose) (HPC)
[16] = dose: 50.0 mg/kg/injection, schedule: Q01DX005 (ip), vehicle: Klucel (hydroxypropylcellulose) (HPC)

Measured: T/C

CC1=CC2OC3CC4OC(=O)/C=C/C=C/C(C(C)O)OCC(O)/C(C)=C/C(=O)OCC2(CC1O)C4(C)C31CO1 (centres undefined)
active: dose: 1.25 mg/kg/injection, schedule: Q01DX005 (ip), vehicle: saline + alcohol 163 % of control | dose: 2.5 mg/kg/injection, schedule: Q01DX005 (ip), vehicle: saline + alcohol 156 % of control and 224 % of control | dose: 5.0 mg/kg/injection, schedule: Q01DX005 (ip), vehicle: saline + alcohol 198 % of control and 243 % of control

CC(C)NC(=O)N(CCCCBr)N=O
inactive: dose: 6.25 mg/kg/injection, schedule: Q01DX009 (ip), vehicle: Klucel (hydroxypropylcellulose) (HPC) 92 % of control | dose: 12.5 mg/kg/injection, schedule: Q01DX009 (ip), vehicle: Klucel (hydroxypropylcellulose) (HPC) 99 % of control | [1] 101 % of control | [2] 117 % of control

N#Cc1nc2c(nc1N)CCCCCCCCCC2
inactive: [1] 94 % of control | [2] 94 % of control | [3] 92 % of control | [4] 100 % of control

COc1cc(Br)c(C(=O)N(C)c2ccccc2)cc1OC
inactive: dose: 25.0 mg/kg/injection, schedule: Q01DX009 (ip), vehicle: other 106 % of control | dose: 50.0 mg/kg/injection, schedule: Q01DX009 (ip), vehicle: other 108 % of control

Cc1c2ccncc2c(CNC(=O)CCCC(=O)NCc2c3cnccc3c(C)c3c2c2ccccc2n3C)c2c3ccccc3n(C)c12
inactive: dose: 6.25 mg/kg/injection, schedule: Q04DX002 (ip), vehicle: saline with Tween-80 104 % of control | dose: 12.5 mg/kg/injection, schedule: Q04DX002 (ip), vehicle: saline with Tween-80 104 % of control | dose: 25.0 mg/kg/injection, schedule: Q04DX002 (ip), vehicle: saline with Tween-80 102 % of control | dose: 50.0 mg/kg/injection, schedule: Q04DX002 (ip), vehicle: saline with Tween-80 104 % of control

CSCSCC(N)CO (centres undefined)
inactive: dose: 25.0 mg/kg/injection, schedule: Q01DX005 (ip), vehicle: water 95 % of control | dose: 50.0 mg/kg/injection, schedule: Q01DX005 (ip), vehicle: water 100 % of control | dose: 100.0 mg/kg/injection, schedule: Q01DX005 (ip), vehicle: water 89 % of control | dose: 200.0 mg/kg/injection, schedule: Q01DX005 (ip), vehicle: water 95 % of control | dose: 400.0 mg/kg/injection, schedule: Q01DX005 (ip), vehicle: water 89 % of control

CNC(=O)OCc1c(COC(=O)NC)c(C)n(-c2ccc(Br)cc2)c1C
inactive: dose: 50.0 mg/kg/injection, schedule: Q01DX009 (ip), vehicle: saline 89 % of control
active: dose: 12.5 mg/kg/injection, schedule: Q01DX009 (ip), vehicle: saline 152 % of control and 154 % of control | dose: 25.0 mg/kg/injection, schedule: Q01DX009 (ip), vehicle: saline 157 % of control

CCOC(=O)CC1=CSC(=C(C#N)C#N)N1c1ccccc1
inactive: dose: 50.0 mg/kg/injection, schedule: Q01DX005 (ip), vehicle: saline with Tween-80 102 % of control | dose: 100.0 mg/kg/injection, schedule: Q01DX005 (ip), vehicle: saline with Tween-80 98 % of control | dose: 200.0 mg/kg/injection, schedule: Q01DX005 (ip), vehicle: saline with Tween-80 98 % of control

CCc1ccc(N2C(=O)C(CC(=O)O)SC23C(=O)N(Cc2ccccc2)c2ccccc23)cc1 (centres undefined)
inactive: dose: 60.0 mg/kg/injection, schedule: Q01DX005 (ip), vehicle: saline with Tween-80 94 % of control | dose: 120.0 mg/kg/injection, schedule: Q01DX005 (ip), vehicle: saline with Tween-80 97 % of control

COc1ccccc1N=Cc1ccc(C=Nc2ccccc2OC)cc1
inactive: [2] 97 % of control | [3] 98 % of control | [4] 101 % of control and 88 % of control

Cn1nnc(/C(N)=N/N=C/c2ccccc2)n1
inactive: [2] 100 % of control | [3] 102 % of control | [4] 94 % of control

COc1ccc(C(=O)CC(C(=O)O)c2ccc(OC)c(OC)c2)cc1OC (centres undefined)
inactive: [5] 90 % of control | [6] 86 % of control | [7] 86 % of control

COc1ccc(CN2CCc3cc(OC)c(O)cc3C2)cc1O
inactive: dose: 100.0 mg/kg/injection, schedule: Q01DX001 (ip), vehicle: saline with Tween-80 94 % of control | dose: 200.0 mg/kg/injection, schedule: Q01DX001 (ip), vehicle: saline with Tween-80 98 % of control

O=C1c2ccccc2C(=O)N1CCS(=O)(=O)Cl
inactive: dose: 12.5 mg/kg/injection, schedule: Q01DX009 (ip), vehicle: saline with Tween-80 100 % of control | [8] 106 % of control | [9] 114 % of control | [10] 117 % of control

CC(CO)CCC(O)C(C)(O)C1CCC2(O)C3=CC(=O)C4CC(O)C(O)CC4(C)C3CCC12C (centres undefined)
inactive: dose: 1.25 mg/kg/injection, schedule: Q01DX005 (ip), vehicle: Klucel (hydroxypropylcellulose) (HPC) 102 % of control | dose: 2.5 mg/kg/injection, schedule: Q01DX005 (ip), vehicle: Klucel (hydroxypropylcellulose) (HPC) 97 % of control | [11] 98 % of control | [12] 100 % of control | [13] 100 % of control | [14] 100 % of control | [15] 98 % of control

Cc1nc2c([N+](=O)[O-])c(Nc3ccc(O)cc3)c([N+](=O)[O-])cc2[nH]1
inactive: [5] 99 % of control | [6] 92 % of control | [7] 92 % of control

COc1c2occc2c(S(N)(=O)=O)c2ccc(=O)oc12
inactive: [8] 106 % of control | [9] 103 % of control | [10] 106 % of control

CCS(CC)=NC(=O)C(Cl)Cl
inactive: dose: 50.0 mg/kg/injection, schedule: Q01DX001 (ip), vehicle: Klucel (hydroxypropylcellulose) (HPC) 100 % of control and 104 % of control and 97 % of control | dose: 100.0 mg/kg/injection, schedule: Q01DX001 (ip), vehicle: Klucel (hydroxypropylcellulose) (HPC) 99 % of control and 100 % of control and 94 % of control | dose: 200.0 mg/kg/injection, schedule: Q01DX001 (ip), vehicle: Klucel (hydroxypropylcellulose) (HPC) 99 % of control and 100 % of control and 123 % of control | dose: 400.0 mg/kg/injection, schedule: Q01DX001 (ip), vehicle: Klucel (hydroxypropylcellulose) (HPC) 111 % of control and 95 % of control

O=c1nc(-c2ccccc2)sc(=O)[nH]1
inactive: [2] 102 % of control | [3] 111 % of control

Cc1ccc(Sc2cccc3c(C)c4cccc5c4c(c23)C[S+]5c2ccc(C)cc2)cc1 (centres undefined)
inactive: dose: 2.0 mg/kg/injection, schedule: Q01DX009 (ip), vehicle: saline with Tween-80 104 % of control | dose: 3.0 mg/kg/injection, schedule: Q01DX009 (ip), vehicle: saline with Tween-80 122 % of control

Cc1nc(Nc2ccc(F)cc2)c2c(C)c[nH]c2n1
inactive: [16] 90 % of control | dose: 100.0 mg/kg/injection, schedule: Q01DX005 (ip), vehicle: Klucel (hydroxypropylcellulose) (HPC) 88 % of control | dose: 200.0 mg/kg/injection, schedule: Q01DX005 (ip), vehicle: Klucel (hydroxypropylcellulose) (HPC) 89 % of control

C=C1C(=O)OC2/C=C(\C)CC/C=C(\C(=O)O)CC/C=C(/C)CCC12 (centres undefined)
inactive: [11] 100 % of control | [12] 117 % of control | [13] 118 % of control | [14] 115 % of control | [15] 115 % of control

COc1cccc(/C=N/NC(=S)Nc2cc(C(F)(F)F)cc(C(F)(F)F)c2)c1O
inactive: dose: 25.0 mg/kg/injection, schedule: Q01DX005 (ip), vehicle: Klucel (hydroxypropylcellulose) (HPC) 93 % of control | [16] 100 % of control and 93 % of control

CC(=O)c1cc(C(O)C(O)C(O)C(O)CO)[nH]c1C (centres undefined)
inactive: dose: 50.0 mg/kg/injection, schedule: Q01DX005 (ip), vehicle: saline 108 % of control | dose: 100.0 mg/kg/injection, schedule: Q01DX005 (ip), vehicle: saline 108 % of control | dose: 200.0 mg/kg/injection, schedule: Q01DX005 (ip), vehicle: saline 110 % of control

Cc1cc(=O)oc2c(-c3ccccc3)n[nH]c(=O)c12
inactive: dose: 60.0 mg/kg/injection, schedule: Q01DX005 (ip), vehicle: Klucel (hydroxypropylcellulose) (HPC) 104 % of control | dose: 120.0 mg/kg/injection, schedule: Q01DX005 (ip), vehicle: Klucel (hydroxypropylcellulose) (HPC) 95 % of control | dose: 240.0 mg/kg/injection, schedule: Q01DX005 (ip), vehicle: Klucel (hydroxypropylcellulose) (HPC) 97 % of control

O=S(=O)(O)O.[NH-]CC[NH-].[Pt+2]
active: dose: 6.25 mg/kg/injection, schedule: Q04DX002 (ip), vehicle: saline 168 % of control
inactive: dose: 12.5 mg/kg/injection, schedule: Q04DX002 (ip), vehicle: saline 97 % of control
